Values of other authors as cited in US20190192686A1, “TARGETED NANODROPLET EMULSIONS FOR TREATING CANCER” (The University of Louisville Research Foundation,, priority 2016, published 2019).

Target: plasma membrane nucleolin (Homo sapiens, UniProt P19338)
Sequence (P19338 whole entry): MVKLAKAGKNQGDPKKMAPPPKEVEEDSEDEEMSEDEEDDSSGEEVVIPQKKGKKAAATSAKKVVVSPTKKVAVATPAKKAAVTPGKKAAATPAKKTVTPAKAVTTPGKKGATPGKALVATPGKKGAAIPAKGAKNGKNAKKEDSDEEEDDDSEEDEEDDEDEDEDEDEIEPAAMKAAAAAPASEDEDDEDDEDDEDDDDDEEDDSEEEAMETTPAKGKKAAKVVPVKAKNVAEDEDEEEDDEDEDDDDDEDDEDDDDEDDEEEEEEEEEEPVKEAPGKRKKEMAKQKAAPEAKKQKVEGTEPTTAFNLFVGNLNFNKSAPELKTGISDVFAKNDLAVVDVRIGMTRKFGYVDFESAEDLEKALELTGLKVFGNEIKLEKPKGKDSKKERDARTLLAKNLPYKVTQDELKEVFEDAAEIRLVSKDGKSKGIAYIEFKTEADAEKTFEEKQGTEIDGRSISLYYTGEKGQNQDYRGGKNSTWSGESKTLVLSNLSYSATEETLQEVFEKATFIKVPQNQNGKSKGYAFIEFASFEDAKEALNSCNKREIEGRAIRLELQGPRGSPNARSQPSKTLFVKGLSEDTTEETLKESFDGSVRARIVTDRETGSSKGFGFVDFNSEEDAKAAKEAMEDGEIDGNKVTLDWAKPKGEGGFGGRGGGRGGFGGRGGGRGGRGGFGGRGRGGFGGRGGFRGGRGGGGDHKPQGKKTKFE
Design: key: ^1: Indicates a good plasma membrane nucleolin-binding GRO.; ^2: Indicates a nucleolin control (non-plasma membrane nucleolin binding)
Conditions: superscript designation in Table 1
In the case of “GRO15B: ttgggggggg tgggt (TTGGGGGGGGTGGGT; listed as DNA, chemistry not fully specified)”, the “plasma membrane nucleolin binding” value is listed as “GRO15B^2”.
For “GRO R: gcggtttgcg g (GCGGTTTGCGG; listed as DNA, chemistry not given here)”, the “plasma membrane nucleolin binding” value is given as “GRO R^2”.
For “GRO H: ggggttttgg gg (DNA GGGGTTTTGGGG; listed as DNA, chemistry not fully specified)”, the “plasma membrane nucleolin binding” value is given as “GRO H^1”.
For GRO P: tggggt, the “plasma membrane nucleolin binding” value is given as “GRO P^2”.
In the case of “GRO O: cctcctcctc cttctcctcc tcctcc (CCTCCTCCTCCTTCTCCTCCTCCTCC; aptamer; listed as DNA, chemistry not fully specified)”, the “plasma membrane nucleolin binding” value is given as “GRO O^2”.
For “GRO Q: gcatgct (GCATGCT; listed as DNA, chemistry not given here)”, the “plasma membrane nucleolin binding” value is given as “GRO Q^2”.
For “GRO T: ggggttgggg tgtggggttg ggg (GGGGTTGGGGTGTGGGGTTGGGG; listed as DNA, chemistry not given here)”, the “plasma membrane nucleolin binding” value is listed as “GRO T^2”.
For GRO26B: ggtggtggtg gttgtggtgg tggtgg, the “plasma membrane nucleolin binding” value is given as “GRO26B^1”.
In the case of “GRO S: tagg (TAGG; listed as DNA, chemistry not given here)”, the “plasma membrane nucleolin binding” value is given as “GRO S^2”.
In the case of “GRO I: gggttttggg (DNA GGGTTTTGGG; listed as DNA, chemistry not fully specified)”, the “plasma membrane nucleolin binding” value is listed as “GRO I^1”.
In the case of “GRO J: ggggttttgg ggttttgggg ttttgggg (DNA GGGGTTTTGGGGTTTTGGGGTTTTGGGG; listed as DNA, chemistry not fully specified)”, the “plasma membrane nucleolin binding” value is listed as “GRO J^1”.
For “GRO N: tttcctcctc ctccttctcc tcctcctcc (TTTCCTCCTCCTCCTTCTCCTCCTCCTCC; listed as DNA, chemistry not fully specified)”, the “plasma membrane nucleolin binding” value is given as “GRO N^2”.
In the case of “GRO K: ttggggttgg ggttggggtt gggg (DNA TTGGGGTTGGGGTTGGGGTTGGGG; listed as DNA, chemistry not fully specified)”, the “plasma membrane nucleolin binding” value is given as “GRO K^1”.
For GRO G: ggttggtgtg gttgg, the “plasma membrane nucleolin binding” value is given as “GRO G^1”.
In the case of “GRO M: ggttttggtt ttggttttgg ttttgg (GGTTTTGGTTTTGGTTTTGGTTTTGG; aptamer; listed as DNA, chemistry not fully specified)”, the “plasma membrane nucleolin binding” value is given as “GRO M^1”.
